Reference: patent publication US11173151B2, “Substituted triazole derivatives and uses thereof” (BAYER AKTIENGESELLSCHAFT, priority 2017, dated 2021)
pIC50: −log10 of the molar value.

Legend:
[1] = biological target: T1, human V2 receptor (Homo sapiens, UniProt P30518); assay: Cellular in vitro assay for determining vasopressin receptor activity, V2 receptor cell line (CHO, CRE-luciferase); assay type: cell-based; settings: CHO cell line transfected with human V2 receptor; [Arg8]-vasopressin at EC50 concentration, 3 hours; read-out: IC50 hV2
T1 construct: expressed in transfected cells; host or cells: CHO K1 (ATCC) expressing firefly luciferase under a CRE-responsive promoter

[2] = biological target: T2, human V1a receptor (Homo sapiens, UniProt P37288); assay: Cellular in vitro assay for determining vasopressin receptor activity, V1a receptor cell line (CHO, aequorin luminescence); assay type: cell-based; settings: for pIC50: CHO cell line transfected with human V1a receptor, [Arg]-vasopressin at EC50 concentration, read-out: IC50 hV1a; for ratio IC50 hV2/hV1a: selectivity ratio IC50 hV2 / IC50 hV1a
T2 construct: expressed in transfected cells; host or cells: CHO K1 (ATCC), also stably transfected with a modified aequorin
Summary of the method: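 CHO K1/aequorin cells, coelenterazine 5 μg/ml o/n; cpd 10 min; [Arg]-vasopressin at EC50; luminescence read immediately; IC50.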

T2 sequence (P37288 whole entry): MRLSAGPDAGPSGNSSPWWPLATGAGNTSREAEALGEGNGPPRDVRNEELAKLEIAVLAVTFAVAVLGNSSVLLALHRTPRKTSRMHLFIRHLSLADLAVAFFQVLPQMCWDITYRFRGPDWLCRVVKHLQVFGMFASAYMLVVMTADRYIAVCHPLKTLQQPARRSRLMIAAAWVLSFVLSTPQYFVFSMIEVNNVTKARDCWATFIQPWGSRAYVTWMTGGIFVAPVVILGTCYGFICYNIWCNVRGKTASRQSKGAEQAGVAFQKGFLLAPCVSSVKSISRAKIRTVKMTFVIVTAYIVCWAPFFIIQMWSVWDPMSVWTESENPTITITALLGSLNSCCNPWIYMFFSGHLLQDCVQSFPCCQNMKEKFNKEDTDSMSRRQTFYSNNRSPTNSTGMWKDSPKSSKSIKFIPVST
T1 sequence (P30518 whole entry): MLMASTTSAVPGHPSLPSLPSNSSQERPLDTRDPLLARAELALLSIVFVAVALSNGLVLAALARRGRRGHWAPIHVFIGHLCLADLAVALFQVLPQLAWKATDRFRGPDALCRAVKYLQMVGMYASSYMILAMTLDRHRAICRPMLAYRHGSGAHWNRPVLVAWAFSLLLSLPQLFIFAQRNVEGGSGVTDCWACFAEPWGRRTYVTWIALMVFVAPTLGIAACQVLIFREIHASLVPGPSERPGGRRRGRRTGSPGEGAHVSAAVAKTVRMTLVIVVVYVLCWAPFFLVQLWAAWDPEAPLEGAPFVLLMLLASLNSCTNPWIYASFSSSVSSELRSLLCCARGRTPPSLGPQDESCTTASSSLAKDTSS

pIC50 [1]	pIC50 [2]	ratio IC50 hV2/hV1a [2]	SMILES
7.11	8.60	30.8	CCN(C)C(=O)c1ccccc1-n1cnc(Cn2nc(-c3ccc(Cl)cc3)n(C[C@H](O)C(F)(F)F)c2=O)n1 [Example 295, 2-[3-({3-(4-Chlorophenyl)-5-oxo-4-[(2S)-3,3,3-trifluoro-2-hydroxypropyl]-4,5-dihydro-1H-1,2,4-triazol-1-yl}methyl)-1H-1,2,4-triazol-1-yl]-N-ethyl-N-methylbenzamide]
6.30	8.40	126.6	Cc1cccnc1NC(=O)c1ccccc1-n1cnc(Cn2nc(-c3ccc(Cl)cc3)n(C[C@H](O)C(F)(F)F)c2=O)n1 [Example 296, 2-[3-({3-(4-Chlorophenyl)-5-oxo-4-[(2S)-3,3,3-trifluoro-2-hydroxypropyl]-4,5-dihydro-1H-1,2,4-triazol-1-yl}methyl)-1H-1,2,4-triazol-1-yl]-N-(3-methylpyridin-2-yl)benzamide]
6.58	8.36	60.2	O=C(NCc1ccccc1)c1ccccc1-n1cnc(Cn2nc(-c3ccc(Cl)cc3)n(C[C@H](O)C(F)(F)F)c2=O)n1 [Example 299, N-Benzyl-2-[3-({3-(4-chlorophenyl)-5-oxo-4-[(2S)-3,3,3-trifluoro-2-hydroxypropyl]-4,5-dihydro-1H-1,2,4-triazol-1-yl}methyl)-1H-1,2,4-triazol-1-yl]benzamide]
6.17	8.99	656.9	O=C(Nc1ccncc1)c1ccccc1-n1cnc(Cn2nc(-c3ccc(Cl)cc3)n(C[C@H](O)C(F)(F)F)c2=O)n1 [Example 300, 2-[3-({3-(4-Chlorophenyl)-5-oxo-4-[(2S)-3,3,3-trifluoro-2-hydroxypropyl]-4,5-dihydro-1H-1,2,4-triazol-1-yl}methyl)-1H-1,2,4-triazol-1-yl]-N-(pyridin-4-yl)benzamide]
6.21	8.06	69.7	O=C(NCc1ccccn1)c1ccccc1-n1cnc(Cn2nc(-c3ccc(Cl)cc3)n(C[C@H](O)C(F)(F)F)c2=O)n1 [Example 301, 2-[3-({3-(4-Chlorophenyl)-5-oxo-4-[(2S)-3,3,3-trifluoro-2-hydroxypropyl]-4,5-dihydro-1H-1,2,4-triazol-1-yl}methyl)-1H-1,2,4-triazol-1-yl]-N-(pyridin-2-ylmethyl)benzamide]
5.48	8.43	880.0	O=C(NCc1ccncc1)c1ccccc1-n1cnc(Cn2nc(-c3ccc(Cl)cc3)n(C[C@H](O)C(F)(F)F)c2=O)n1 [Example 302, 2-[3-({3-(4-Chlorophenyl)-5-oxo-4-[(2S)-3,3,3-trifluoro-2-hydroxypropyl]-4,5-dihydro-1H-1,2,4-triazol-1-yl}methyl)-1H-1,2,4-triazol-1-yl]-N-(pyridin-4-ylmethyl)benzamide]
6.30	8.67	234.9	O=C(Nc1ccc(F)cc1F)c1ccccc1-n1cnc(Cn2nc(-c3ccc(Cl)cc3)n(C[C@H](O)C(F)(F)F)c2=O)n1 [Example 303, 2-[3-({3-(4-Chlorophenyl)-5-oxo-4-[(2S)-3,3,3-trifluoro-2-hydroxypropyl]-4,5-dihydro-1H-1,2,4-triazol-1-yl}methyl)-1H-1,2,4-triazol-1-yl]-N-(2,4-difluorophenyl)benzamide]
7.18	8.65	29.1	O=C(Nc1cc(F)ccc1F)c1ccccc1-n1cnc(Cn2nc(-c3ccc(Cl)cc3)n(C[C@H](O)C(F)(F)F)c2=O)n1 [Example 304, 2-[3-({3-(4-Chlorophenyl)-5-oxo-4-[(2S)-3,3,3-trifluoro-2-hydroxypropyl]-4,5-dihydro-1H-1,2,4-triazol-1-yl}methyl)-1H-1,2,4-triazol-1-yl]-N-(2,5-difluorophenyl)benzamide]
7.27	9.01	55.7	O=C(Nc1ccccc1F)c1ccccc1-n1cnc(Cn2nc(-c3ccc(Cl)cc3)n(C[C@H](O)C(F)(F)F)c2=O)n1 [Example 305, 2-[3-({3-(4-Chlorophenyl)-5-oxo-4-[(2S)-3,3,3-trifluoro-2-hydroxypropyl]-4,5-dihydro-1H-1,2,4-triazol-1-yl}methyl)-1H-1,2,4-triazol-1-yl]-N-(2-fluorophenyl)benzamide]
6.91	8.80	77.2	Cc1c(F)cccc1NC(=O)c1ccccc1-n1cnc(Cn2nc(-c3ccc(Cl)cc3)n(C[C@H](O)C(F)(F)F)c2=O)n1 [Example 306, 2-[3-({3-(4-Chlorophenyl)-5-oxo-4-[(2S)-3,3,3-trifluoro-2-hydroxypropyl]-4,5-dihydro-1H-1,2,4-triazol-1-yl}methyl)-1H-1,2,4-triazol-1-yl]-N-(3-fluoro-2-methylphenyl)benzamide]
6.76	8.78	106.1	Cc1ccc(F)c(NC(=O)c2ccccc2-n2cnc(Cn3nc(-c4ccc(Cl)cc4)n(C[C@H](O)C(F)(F)F)c3=O)n2)c1 [Example 307, 2-[3-({3-(4-Chlorophenyl)-5-oxo-4-[(2S)-3,3,3-trifluoro-2-hydroxypropyl]-4,5-dihydro-1H-1,2,4-triazol-1-yl}methyl)-1H-1,2,4-triazol-1-yl]-N-(2-fluoro-5-methylphenyl)benzamide]
5.48	7.76	188.6	O=C(NN1CCOCC1)c1ccccc1-n1cnc(Cn2nc(-c3ccc(Cl)cc3)n(C[C@H](O)C(F)(F)F)c2=O)n1 [Example 308, 2-[3-({3-(4-Chlorophenyl)-5-oxo-4-[(2S)-3,3,3-trifluoro-2-hydroxypropyl]-4,5-dihydro-1H-1,2,4-triazol-1-yl}methyl)-1H-1,2,4-triazol-1-yl]-N-(morpholin-4-yl)benzamide]
6.93	8.72	61.3	Cc1ccc(NC(=O)c2ccccc2-n2cnc(Cn3nc(-c4ccc(Cl)cc4)n(C[C@H](O)C(F)(F)F)c3=O)n2)c(F)c1 [Example 309, 2-[3-({3-(4-Chlorophenyl)-5-oxo-4-[(2S)-3,3,3-trifluoro-2-hydroxypropyl]-4,5-dihydro-1H-1,2,4-triazol-1-yl}methyl)-1H-1,2,4-triazol-1-yl]-N-(2-fluoro-4-methylphenyl)benzamide]
6.67	8.59	82.7	O=C(Nc1ccc(F)cc1)c1ccccc1-n1cnc(Cn2nc(-c3ccc(Cl)cc3)n(C[C@H](O)C(F)(F)F)c2=O)n1 [Example 310, 2-[3-({3-(4-Chlorophenyl)-5-oxo-4-[(2S)-3,3,3-trifluoro-2-hydroxypropyl]-4,5-dihydro-1H-1,2,4-triazol-1-yl}methyl)-1H-1,2,4-triazol-1-yl]-N-(4-fluorophenyl)benzamide]
5.90	8.73	675.7	O=C(c1ccccc1-n1cnc(Cn2nc(-c3ccc(Cl)cc3)n(C[C@H](O)C(F)(F)F)c2=O)n1)N1CCSCC1 [Example 311, 5-(4-Chlorophenyl)-2-({1-[2-(thiomorpholin-4-ylcarbonyl)phenyl]-1H-1,2,4-triazol-3-yl}methyl)-4-[(2S)-3,3,3-trifluoro-2-hydroxypropyl]-2,4-dihydro-3H-1,2,4-triazol-3-one]
6.87	8.16	19.7	Nc1cccc(NC(=O)c2ccccc2-n2cnc(Cn3nc(-c4ccc(Cl)cc4)n(C[C@H](O)C(F)(F)F)c3=O)n2)n1 [Example 312, N-(6-Aminopyridin-2-yl)-2-[3-({3-(4-chlorophenyl)-5-oxo-4-[(2S)-3,3,3-trifluoro-2-hydroxypropyl]-4,5-dihydro-1H-1,2,4-triazol-1-yl}methyl)-1H-1,2,4-triazol-1-yl]benzamide]
6.04	8.38	220.5	Cc1ccncc1NC(=O)c1ccccc1-n1cnc(Cn2nc(-c3ccc(Cl)cc3)n(C[C@H](O)C(F)(F)F)c2=O)n1 [Example 313, 2-[3-({3-(4-Chlorophenyl)-5-oxo-4-[(2S)-3,3,3-trifluoro-2-hydroxypropyl]-4,5-dihydro-1H-1,2,4-triazol-1-yl}methyl)-1H-1,2,4-triazol-1-yl]-N-(4-methylpyridin-3-yl)benzamide]
6.29	8.67	237.2	CCN(CC)C(=O)c1ccccc1-n1cnc(Cn2nc(-c3ccc(Cl)cc3)n(C[C@H](O)C(F)(F)F)c2=O)n1 [Example 314, 2-[3-({3-(4-Chlorophenyl)-5-oxo-4-[(2S)-3,3,3-trifluoro-2-hydroxypropyl]-4,5-dihydro-1H-1,2,4-triazol-1-yl}methyl)-1H-1,2,4-triazol-1-yl]-N,N-diethylbenzamide]
6.81	8.38	37.3	O=C(NCc1ccco1)c1ccccc1-n1cnc(Cn2nc(-c3ccc(Cl)cc3)n(C[C@H](O)C(F)(F)F)c2=O)n1 [Example 315, 2-[3-({3-(4-Chlorophenyl)-5-oxo-4-[(2S)-3,3,3-trifluoro-2-hydroxypropyl]-4,5-dihydro-1H-1,2,4-triazol-1-yl}methyl)-1H-1,2,4-triazol-1-yl]-N-(furan-2-ylmethyl)benzamide]
6.59	8.76	145.7	O=C(NC1CCC1)c1ccccc1-n1cnc(Cn2nc(-c3ccc(Cl)cc3)n(C[C@H](O)C(F)(F)F)c2=O)n1 [Example 316, 2-[3-({3-(4-Chlorophenyl)-5-oxo-4-[(2S)-3,3,3-trifluoro-2-hydroxypropyl]-4,5-dihydro-1H-1,2,4-triazol-1-yl}methyl)-1H-1,2,4-triazol-1-yl]-N-cyclobutylbenzamide]
